Source: US6455528B1, “Piperazine compounds and medicinal use thereof” (Mitsubishi Pharma Corporation, priority 1997, dated 2002)

Key:
IL-10 production = assay: Effect on IL-10 production in mice (in vivo), LPS-induced; settings: serum IL-10 90 min after LPS 500 μg/kg i.p.; test compound orally 30 min before LPS; ratio relative to test compound non-administration group
Experimental: (§1) Since the TNF-α concentration in serum reaches a peak at 90 min after LPS administration, the TNF-α concentration in the serum at this point was measured using FACTOR TEST mTNF-α (manufactured by Genzyme) and the IL-10 concentration at the same point of time was also measured using Murine IL-10 ELISA Kit (manufactured by Endogen). […] The effect of the test compound on the TNF-α production and IL-10 production was calculated by the following formula as the ratio relative to the test compound non-administration group.

TNF-α production = assay: Effect on TNF-α production in mice (in vivo), LPS-induced; settings: serum TNF-α 90 min after LPS 500 μg/kg i.p.; test compound orally 30 min before LPS; ratio relative to test compound non-administration group
Experimental: as §1

| Structure (SMILES) | IL-10 production (%) (IL-10 production) | TNF-α production (%) (TNF-α production) | melting point |
| --- | --- | --- | --- |
| CC(=O)NC(C)c1ccc(CN2CCN(c3ccc(F)cc3)CC2)cc1 (stereo not drawn) [Example 48, N-(1-(4-((4-(4-Fluorophenyl)piperazin-1-yl)methyl)phenyl)ethyl)acetamide] | 888% | 12% | 101 to 103 °C |
| CC(=O)NC(C)(C)c1ccc(CN2CCN(c3ccc(F)cc3)CC2)cc1 [Example 51, N-(1-Methyl-1-(4-((4-(4-fluorophenyl)-piperazin-1-yl)methyl)phenyl)ethyl)acetamide] | 533% | 16% | 104.5 to 106 °C |
| CC(=O)NCc1ccc(CN2CCN(c3ncccn3)CC2)cc1 [Example 72, N-(4-((4-(Pyrimidin-2-yl)piperazin-1-yl)methyl)phenylmethyl)acetamide] | 510% | 20% | 120 to 121 °C |
| CC(=O)NCc1ccc(CN2CCN(c3ccccn3)CC2)cc1 [Example 82, N-(4-((4-(Pyridin-2-yl)piperazin-1-yl)methyl)phenylmethyl)acetamide] | 742% | 11% | 100 to 101 °C |
